Results: US7195888B2, “Calcium-independent phospholipase A2 induces ischemic ventricular arrhythmias and decreases infarction size” (Washington University in St. Louis, priority 2002, dated 2007)
Entries after “also recorded” stand apart in the source; their conditions may differ.

Columns and labels:
[1] = system: Langendorf-perfused mouse hearts; test: Ischemia-induced ventricular arrhythmias (PVCs, VT) after LAD coronary ligation in isolated Langendorf-perfused mouse hearts; conditions: for frequency of PVCs (PVC frequency/5 min interval) after coronary ligation: BEL 10 μM pretreatment from 5 min before ligation, 30 min ischemia
Protocol: Data are presented as the +/− standard deviation. A, frequency of PVCs in wild type control mouse hearts (open bars, n=19) and in TGiPLA2β transgenic mouse hearts (closed bars, n=24) in the absence of BEL pretreatment (−BEL). Total PVCs were recorded in 5 minute intervals (0–5, 5–10, 10–15, 15–20, 20–25, and 25–30 min) after ligation of the LAD coronary artery in TGiPLA2β and wild-type control Langendorf hearts. The mean PVC frequency per interval (PVC frequency/5 min interval) was then plotted vs time interval after coronary ligation. […] B, The effect of BEL pretreatment (+BEL) on PVC frequency measured in 5 min intervals after coronary litigation. […] C, Frequency histogram showing total episodes of VT in TGiPLA2β transgenics (closed bars, n=24) vs wild-type control hearts (open bars, n=19) with (+) and without (−) BEL pretreatment.
To determine the role of iPLA2β in arrhythmogenesis during acute cardiac ischemia, a Langendorf perfused heart preparation was employed^6. […] The frequency of spontaneous PVCs was higher in hearts expressing iPLA2β compared with controls at each 5 minute time interval examined during 30 minutes of ischemia (p=0.0003 vs WT by MANOVA) (FIG. 4). Multiple episodes of non-sustained VT occurred in TGiPLA2β hearts (9 of 24 hearts) compared with a single episode in one WT heart (1 of 19 hearts) (p=0.002).
Isolated perfused mouse heart preparations were utilized as previously referenced (1). Briefly, a traditionally accepted ex vivo intact model of acute ischemia was studied. The left anterior descending (LAD) coronary artery was occluded in isolated perfused hearts. Mice were anesthetized with sodium pentobarbital (150 mg/kg IP), and their hearts were rapidly excised and placed in oxygenated Krebs-Henseleit buffer containing (in mmol/L): NaCl 118.3, KCl 2.7, MgSO4 1.0, KH2PO4 1.4, NaHCO3 29.0, CaCl2 3.4, and glucose 10, plus insulin 70 mU/L and BSA 2.8%, at 37° C. Hearts were perfused by retrograde aortic flow with oxygenated buffer at 37° C. Flow rates were adjusted to maintain constant perfusion pressures of 45 to 50 mm Hg. Hearts were simultaneously superfused in a bath containing oxygenated buffer at 37° C. to maintain constant temperature.(1) Circulation 101:547–552 (2000).
Ischemic Studies with Isolated Langendorf-Perfused Mouse Hearts. Ventricular tachyarrhythmias induced by acute ischemia were characterized with use of an isolated, Langendorf-perfused heart preparation as described previously by Lerner et al^6 which is incorporated herein in its entirety by reference. Frequencies of spontaneous arrhythmias (PVCs, and episodes of VT) were counted for 30 min after coronary ligation and tablulated as PVC frequency per 5 minute intervals. A run of ventricular tachycardia was defined as 10 or more beats with a cycle length <100 msec. After 30 min, hearts were perfused through the aortic catheter with 1% Evans blue dye. To determine the effects of BEL on induction of arrhythmias after ischemia, hearts were perfused with buffer containing 10 μM BEL beginning 5 min before coronary ligation and during ischemia. All studies were randomized and blinded.

iPLA2β [2] = test: ESI/MS quantification of fatty acid release into effluent and accumulation of fatty acids and lysolipids in ischemic zones of Langendorf perfused hearts; parameters: species or system mouse; conditions: hearts from transgenic mice, 15 min LAD occlusion, BEL pretreatment
Protocol: A, Nonesterified fatty acid (NEFA) release obtained from 15 in of effluent from control or ischemic Langendorf hearts. *P<0.001 B, NEFA mass in ischemic heart tissue from WT and TGiPLA2β hearts. *P<0.01. C, Lysophosphatidylcholine (LPC) mass in ischemic tissue from WT and TGiPLA2β hearts. *P<0.0001. Release of NEFA into the effluents (a) and accumulation of NEFA (b) and LPC (c) in ischemic tissue from Langendorf-perfused hearts [WT (light bars) and TGiPLA2β (dark bars)] were measured in the absence or presence of LAD occlusion (ischemia) in the absence (−) or presence […] of BEL pretreatment as indicated.
To determine if ischemia activates iPLA2β catalyzed hydrolysis of lipids in intact myocardium, ESI/MS (electrospray—mass spectrometry) was utilized to quantify the release of fatty acids into the effluent and the accumulation of fatty acids and lysolipids in ischemic zones^19,20. After 15 min of LAD occlusion, increased release of fatty acids was present in the effluents from perfused hearts and both fatty acids and lysolipids accumulated in the ischemic zone of hearts from TG iPLA2β mice but not WT mice (FIG. 3a). […] The concurrent activation of iPLA2β during ischemia in conjunction with the generation of malignant ventricular arrhythmias and their rescue by inhibition of the expressed iPLA2β transgene formally fulfills traditional criteria for proof of a cause and effect relationship between two phenomena (i.e., malignant arrhythmias are not present when virtually no iPLA2β activity is present (WT mice) and malignant arrhythmias are manifest during activation of the expressed iPLA2β transgene by ischemia and arrhythmias are ablated by mechanism-based inhibition of expressed iPLA2β enzymic activity).
Electrospray Ionization Mass Spectrometry of Lipids from Wild type and Transgenic Mouse Myocardium. Lipids were extracted from mouse myocardium (˜50 mg) by a modified Bligh and Dyer technique utilizing 50 mM LiCl in the aqueous layer in the presence of internal standards selected based on their lack of demonstrable endogenous molecular ions in that region^19,20. ESI/MS analysis was performed utilizing a Finnigan TSQ-7000 Spectrometer as previously described^19,20.

iPLA2β [3] = test: Acylcarnitine content of ischemic zone of Langendorf perfused hearts by ESI mass spectrometry; parameters: species or system mouse; conditions: BEL 10 uM for 5 min, 15 min ischemia
Protocol: The ischemia-induced increase in acylcarnitines in wild type mice is inhibited by BEL. Moreover, iPLA2β transgenic mice sustain a dramatic increase in acylcarnitine content during myocardial ischemia in comparison to wild type mice.
Next, ischemia was induced by ligating a marginal branch of the LAD coronary artery and ischemia was induced for 15 minutes. Aliquots of the ischemic zone were taken and rapidly frozen. After addition of internal standard, aliquots of frozen tissue were extracted and analyzed for acylcarnitine content by ESI mass spectrometry by comparisons to standard utilizing methods previously described.

ischemic myocardium = test: Infarct size after ischemia in hearts overexpressing iPLA2β; parameters: species or system mouse; conditions: iPLA2β overexpression, BEL treatment
Protocol: Control or iPLA2β transgenic mice were perfused retrograde through the aorta for an equilibration interval prior to the induction of ischemia by ligating the LAD coronary artery. After 15 min. of ischemia the tissue was fixed and the magnitude of infarcted tissue was assessed on a 1 to 5 scale. […] Moreover, the deliberate overexpression of iPLA2β increases infarct size which can be reduced with BEL treatment. Thus the discovery clearly for the first time defines a evidences iPLA2β as a pharmacologic target in any aspect of phospholipase work by discriminating iPLA2β activity from other phospholipases by the traditional pharmacologic criteria of knockdown, inhibition and rescue by inhibition of the species-specific knock down pathophysiology. The evidence is this proof of concept thereby formally provides an intact, functional organ model to test the effect of pharmacologic agents on ischemia induced arrhythmias by inhibition of iPLA2β regulatory networks. […] Collectively, the inventor discovered herein a seminal discovery in that it defines and evidences for the first time in molecular detail a protein target, iPLA2β, for prevention and treatment of ventricular arrhythmias in ischemic zones and identifies a new way to screen for additional targets.

iPLA2β [4] = target: T1, iPLA2β (Homo sapiens, UniProt O60733); conditions: racemic BEL; cited from earlier work
T1 sequence (O60733 1-806): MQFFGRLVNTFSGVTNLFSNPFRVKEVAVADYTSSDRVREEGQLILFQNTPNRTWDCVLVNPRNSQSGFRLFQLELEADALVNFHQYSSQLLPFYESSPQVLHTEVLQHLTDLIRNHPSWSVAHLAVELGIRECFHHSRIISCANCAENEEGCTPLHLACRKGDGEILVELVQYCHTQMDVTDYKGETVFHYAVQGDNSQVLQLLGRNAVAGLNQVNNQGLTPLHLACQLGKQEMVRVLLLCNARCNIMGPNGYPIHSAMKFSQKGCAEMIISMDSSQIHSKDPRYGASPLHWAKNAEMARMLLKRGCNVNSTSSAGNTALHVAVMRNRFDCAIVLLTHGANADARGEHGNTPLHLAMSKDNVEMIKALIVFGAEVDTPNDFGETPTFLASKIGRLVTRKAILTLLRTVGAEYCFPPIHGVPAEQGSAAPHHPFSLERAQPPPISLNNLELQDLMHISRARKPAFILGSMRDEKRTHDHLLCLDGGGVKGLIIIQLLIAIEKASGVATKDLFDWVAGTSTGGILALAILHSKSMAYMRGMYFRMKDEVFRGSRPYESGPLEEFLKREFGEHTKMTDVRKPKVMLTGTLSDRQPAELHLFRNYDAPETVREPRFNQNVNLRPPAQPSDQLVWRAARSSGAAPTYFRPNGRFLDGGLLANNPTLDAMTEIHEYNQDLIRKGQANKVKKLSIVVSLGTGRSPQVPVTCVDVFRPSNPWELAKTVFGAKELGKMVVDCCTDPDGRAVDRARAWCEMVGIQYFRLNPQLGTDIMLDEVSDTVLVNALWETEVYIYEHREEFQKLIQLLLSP

iPLA2γ = target: T2, iPLA2γ (Homo sapiens, UniProt Q9NP80); conditions: racemic BEL; cited from earlier work
T2 sequence (Q9NP80 1-782): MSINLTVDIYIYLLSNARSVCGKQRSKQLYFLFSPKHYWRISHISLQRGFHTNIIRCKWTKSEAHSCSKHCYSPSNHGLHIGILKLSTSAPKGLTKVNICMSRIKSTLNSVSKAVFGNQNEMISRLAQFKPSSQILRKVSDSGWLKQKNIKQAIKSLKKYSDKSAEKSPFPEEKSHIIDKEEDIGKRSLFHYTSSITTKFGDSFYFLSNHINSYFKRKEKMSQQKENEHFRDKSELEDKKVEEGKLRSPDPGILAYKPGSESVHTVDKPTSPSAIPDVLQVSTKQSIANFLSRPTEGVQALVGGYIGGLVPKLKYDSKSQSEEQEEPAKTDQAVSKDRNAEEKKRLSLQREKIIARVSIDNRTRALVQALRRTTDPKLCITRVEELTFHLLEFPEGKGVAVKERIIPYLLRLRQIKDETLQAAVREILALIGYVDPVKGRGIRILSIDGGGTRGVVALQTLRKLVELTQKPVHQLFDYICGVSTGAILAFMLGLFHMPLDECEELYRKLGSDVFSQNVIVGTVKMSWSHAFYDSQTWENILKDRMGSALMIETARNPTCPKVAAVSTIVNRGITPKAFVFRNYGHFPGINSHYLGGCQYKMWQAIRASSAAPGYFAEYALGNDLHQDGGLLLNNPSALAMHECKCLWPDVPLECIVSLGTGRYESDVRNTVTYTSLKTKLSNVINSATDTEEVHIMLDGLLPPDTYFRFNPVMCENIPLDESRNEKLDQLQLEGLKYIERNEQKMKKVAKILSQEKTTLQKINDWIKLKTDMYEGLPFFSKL

ischemic hearts = conditions: previously shown; cited from earlier work
[5] = TGiPLA2β hearts, BEL 10 μM pretreatment, LAD ligation
[6] = listed as phospholipase A2 mechanism-based inhibitor

Row | SMILES | frequency of PVCs (PVC frequency/5 min interval) after coronary ligation ([1]; TGiPLA2β hearts) | episodes of ventricular tachycardia / malignant ventricular tachyarrhythmias [1, 5] | hearts with VT / hearts studied [1, 5] | episodes of ventricular tachycardia / malignant ventricular tachyarrhythmias ([1]; TGiPLA2β hearts, BEL 10 μM pretreatment, LAD ligation, listed as phospholipase A2 mechanism-based inhibitor) | frequency of PVCs (PVC frequency/5 min interval) after coronary ligation ([1]; WT control hearts) | accumulation of lysolipids in ischemic zones (iPLA2β [2]) | release of fatty acids (iPLA2β [2]) | accumulation of lysolipids in ischemic zones (iPLA2β [2]; [6]) | release of fatty acids (iPLA2β [2]; [6]) | ischemia-induced increase in acylcarnitines (iPLA2β [3]; iPLA2β transgenic hearts) | ischemia-induced increase in acylcarnitines (iPLA2β [3]; wild type (control) hearts) | infarct size (ischemic myocardium) | inhibition of iPLA2β (iPLA2β [4]) | inhibition of iPLA2γ (iPLA2γ) | arrhythmias in ischemic hearts (ischemic hearts)
1 | O=C1O/C(=C/Br)CCC1c1cccc2ccccc12 (stereo not drawn) [BEL, (E)-6-(bromomethylene)-3-(1-naphthalenyl)-2H-tetrahydropyran-2-one] | inhibited the frequency of PVCs; also recorded: significant decrease in PVC frequency | completely abolished VT; also recorded: rescue of ischemia-induced ventricular tachyarrhythmias; also recorded: significant reduction of VT episodes | 0/10 | rescued transgenic hearts from malignant ventricular dysrhythmias | inhibited the frequency of PVCs; also recorded: reduced PVC frequency | nearly completely ablated | nearly completely ablated | completely ablated | completely ablated | inhibitable; also recorded: inhibited | major portion of acyl carnitine accumulation is BEL inhibitable; also recorded: inhibited | reduced | inhibits | inhibits | 
2 | CCOC(=O)[C@@]1(CCCCCCOc2ccc(Cl)cc2)CO1 [Etomoxir] |  |  |  |  |  |  |  |  |  |  |  |  |  |  | inhibit arrhythmias
